In patent US20120076766A1, “Topical drug delivery system with dual carriers” (priority 2010, published 2012):

Columns and labels:
MRSA = test: Study III: human field study, diabetic foot lesion with cellulitus; format: in vivo; details: IV, for MRSA, 8 days following admission
Protocol: In this embodiment, the additional ingredient to hasten a third therapeutic tissue healing effect was added. This embodiment used vitamin D in a small but medically efficacious amount.

HL-60 cells = details: cited from earlier work

Row | Compound | patient response to treatment (MRSA) | amount at which results (desired cellular responses) occurred (HL-60 cells) | subsequent retinoid-induced TGM2 expression (HL-60 cells; priming of the cells by pretreatment)
1 | CN[C@H](CC(C)C)C(=O)N[C@H]1C(=O)N[C@@H](CC(N)=O)C(=O)N[C@H]2C(=O)N[C@H]3C(=O)N[C@H](C(=O)N[C@H](C(=O)O)c4cc(O)cc(O)c4-c4cc3ccc4O)[C@H](O)c3ccc(c(Cl)c3)Oc3cc2cc(c3O[C@@H]2O[C@H](CO)[C@@H](O)[C@H](O)[C@H]2O[C@H]2C[C@](C)(N)[C@H](O)[C@H](C)O2)Oc2ccc(cc2Cl)[C@H]1O [vancomycin, Vancomycin] | did not respond |  | 
2 | vitamin D |  | about 100 nM | increases
3 | C[S+](C)[O-] [DMSO, dimethyl sulfoxide] |  | less than 2% | 
